This is an account of results in PMC8213057, “Targeting ALK2: An Open Science Approach to Developing Therapeutics for the Treatment of Diffuse Intrinsic Pontine Glioma” (Journal of Medicinal Chemistry, 2020).

One test deals with SRPK2 (Homo sapiens, UniProt P78362). The test can be described thus: biochemical. Conditions: read-out: % enzyme activity, 1 μM; Run 1, Run 2.
A further test has as its target T1, PLK4/SAK (Homo sapiens, UniProt O00444).
T1 sequence (O00444 1-970): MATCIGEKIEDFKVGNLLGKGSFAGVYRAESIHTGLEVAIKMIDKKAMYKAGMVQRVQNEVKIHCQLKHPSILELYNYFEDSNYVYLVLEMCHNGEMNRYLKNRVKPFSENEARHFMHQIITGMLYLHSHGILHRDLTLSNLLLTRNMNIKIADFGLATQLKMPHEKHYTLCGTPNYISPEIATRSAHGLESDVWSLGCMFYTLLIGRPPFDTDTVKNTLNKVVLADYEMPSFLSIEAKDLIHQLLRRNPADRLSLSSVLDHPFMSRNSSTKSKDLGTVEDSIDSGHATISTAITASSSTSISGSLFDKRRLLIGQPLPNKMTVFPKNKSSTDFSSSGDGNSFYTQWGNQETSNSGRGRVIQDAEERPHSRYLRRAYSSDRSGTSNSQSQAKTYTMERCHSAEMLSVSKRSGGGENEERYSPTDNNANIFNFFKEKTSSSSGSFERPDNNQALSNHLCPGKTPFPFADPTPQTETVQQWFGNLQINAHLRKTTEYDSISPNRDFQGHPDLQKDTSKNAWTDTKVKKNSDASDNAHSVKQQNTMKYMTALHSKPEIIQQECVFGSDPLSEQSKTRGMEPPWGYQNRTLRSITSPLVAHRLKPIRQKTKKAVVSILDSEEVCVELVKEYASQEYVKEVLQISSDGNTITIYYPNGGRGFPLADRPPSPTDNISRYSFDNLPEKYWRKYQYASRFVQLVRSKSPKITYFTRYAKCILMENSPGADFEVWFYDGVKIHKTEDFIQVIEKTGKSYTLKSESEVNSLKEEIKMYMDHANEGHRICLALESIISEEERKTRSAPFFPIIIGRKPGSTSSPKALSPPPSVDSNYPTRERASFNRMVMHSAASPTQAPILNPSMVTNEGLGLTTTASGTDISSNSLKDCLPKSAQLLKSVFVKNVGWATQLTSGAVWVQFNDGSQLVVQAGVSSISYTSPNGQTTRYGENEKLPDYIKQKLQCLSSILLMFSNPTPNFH
Conditions: 1 μM; Run 1, Run 2.

Another test concerns the target JAK1 (Homo sapiens, UniProt P23458). Conditions: 1 μM; Run 1, Run 2.
The next test addresses JAK2 (Homo sapiens, UniProt O60674). The test can be described thus: biochemical. Conditions: read-out: % enzyme activity, 1 μM; Run 1, Run 2.
The target of another test is FES/FPS (Homo sapiens, UniProt P07332). The test can be described thus: biochemical. Conditions: read-out: % enzyme activity, 1 μM; Run 1, Run 2.
Chain of FES/FPS (P07332 whole entry): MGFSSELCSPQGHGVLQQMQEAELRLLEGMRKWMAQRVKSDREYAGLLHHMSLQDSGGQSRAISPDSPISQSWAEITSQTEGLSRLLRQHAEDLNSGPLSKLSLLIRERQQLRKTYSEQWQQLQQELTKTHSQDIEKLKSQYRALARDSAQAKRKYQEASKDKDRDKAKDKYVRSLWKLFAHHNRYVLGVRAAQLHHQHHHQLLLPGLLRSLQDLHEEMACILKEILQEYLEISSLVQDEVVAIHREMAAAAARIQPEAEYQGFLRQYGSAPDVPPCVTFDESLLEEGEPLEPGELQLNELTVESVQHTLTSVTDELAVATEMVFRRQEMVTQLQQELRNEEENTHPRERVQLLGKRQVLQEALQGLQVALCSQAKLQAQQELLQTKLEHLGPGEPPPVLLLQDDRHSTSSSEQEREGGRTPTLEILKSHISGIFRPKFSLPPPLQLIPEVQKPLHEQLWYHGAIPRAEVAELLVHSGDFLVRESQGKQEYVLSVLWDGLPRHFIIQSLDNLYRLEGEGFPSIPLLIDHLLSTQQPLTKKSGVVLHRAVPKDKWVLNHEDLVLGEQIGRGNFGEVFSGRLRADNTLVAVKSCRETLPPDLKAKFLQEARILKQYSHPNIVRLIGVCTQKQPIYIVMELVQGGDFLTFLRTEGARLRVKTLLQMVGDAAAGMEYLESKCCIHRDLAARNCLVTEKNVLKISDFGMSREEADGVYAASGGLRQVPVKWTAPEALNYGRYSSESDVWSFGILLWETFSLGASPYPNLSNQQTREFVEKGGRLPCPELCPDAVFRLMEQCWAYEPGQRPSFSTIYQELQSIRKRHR
A further test concerns the target T2, ALK5/TGFBR1 (Homo sapiens, UniProt P36897).
T2 construct: purchased Reaction Biology Corporation
T2 sequence (P36897 34-503): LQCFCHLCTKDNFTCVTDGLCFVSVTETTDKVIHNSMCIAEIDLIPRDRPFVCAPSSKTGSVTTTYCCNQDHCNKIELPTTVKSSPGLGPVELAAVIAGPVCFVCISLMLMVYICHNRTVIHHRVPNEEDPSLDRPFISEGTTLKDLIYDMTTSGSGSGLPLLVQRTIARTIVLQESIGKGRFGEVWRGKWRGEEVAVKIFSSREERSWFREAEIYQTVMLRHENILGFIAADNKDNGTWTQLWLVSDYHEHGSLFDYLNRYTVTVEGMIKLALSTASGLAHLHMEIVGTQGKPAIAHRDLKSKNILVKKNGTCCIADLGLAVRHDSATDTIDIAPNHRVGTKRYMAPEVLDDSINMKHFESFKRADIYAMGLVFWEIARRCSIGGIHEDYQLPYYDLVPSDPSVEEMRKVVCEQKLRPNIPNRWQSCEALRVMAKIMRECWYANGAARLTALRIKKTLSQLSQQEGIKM
Description: 375-member kinase panel. It counts as biochemical. The note with it: Run 1, Run 2; for % enzyme activity: 1 μM; for remaining activity at 1 µM: read-out: % enzyme activity, 1 μM.

In another test the target is T3, MAPKAPK5/PRAK (Homo sapiens, UniProt Q8IW41).
T3 sequence (Q8IW41 1-473): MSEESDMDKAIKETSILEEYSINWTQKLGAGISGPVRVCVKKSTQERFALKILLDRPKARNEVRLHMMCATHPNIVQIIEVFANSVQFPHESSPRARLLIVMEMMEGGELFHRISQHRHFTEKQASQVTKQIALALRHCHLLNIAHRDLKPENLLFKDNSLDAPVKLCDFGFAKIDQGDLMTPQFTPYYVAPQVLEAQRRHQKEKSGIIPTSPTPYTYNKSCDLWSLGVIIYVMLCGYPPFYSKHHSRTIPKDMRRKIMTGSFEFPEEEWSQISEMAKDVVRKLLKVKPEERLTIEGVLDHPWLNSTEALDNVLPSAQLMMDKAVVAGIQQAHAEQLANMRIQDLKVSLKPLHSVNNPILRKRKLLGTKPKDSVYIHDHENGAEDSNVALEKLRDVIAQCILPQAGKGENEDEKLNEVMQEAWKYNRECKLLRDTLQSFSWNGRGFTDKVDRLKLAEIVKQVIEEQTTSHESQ
Description: biochemical. Conditions: read-out: % enzyme activity, 1 μM; Run 1, Run 2.

For the next test, the target named is NEK4 (Homo sapiens, UniProt P51957). The test can be described thus: biochemical. The note with it: read-out: % enzyme activity, 1 μM; Run 1, Run 2.
A further test deals with T4, MINK/MINK1 (Homo sapiens, UniProt Q8N4C8).
T4 construct: purchased Reaction Biology Corporation
T4 sequence (Q8N4C8 whole entry): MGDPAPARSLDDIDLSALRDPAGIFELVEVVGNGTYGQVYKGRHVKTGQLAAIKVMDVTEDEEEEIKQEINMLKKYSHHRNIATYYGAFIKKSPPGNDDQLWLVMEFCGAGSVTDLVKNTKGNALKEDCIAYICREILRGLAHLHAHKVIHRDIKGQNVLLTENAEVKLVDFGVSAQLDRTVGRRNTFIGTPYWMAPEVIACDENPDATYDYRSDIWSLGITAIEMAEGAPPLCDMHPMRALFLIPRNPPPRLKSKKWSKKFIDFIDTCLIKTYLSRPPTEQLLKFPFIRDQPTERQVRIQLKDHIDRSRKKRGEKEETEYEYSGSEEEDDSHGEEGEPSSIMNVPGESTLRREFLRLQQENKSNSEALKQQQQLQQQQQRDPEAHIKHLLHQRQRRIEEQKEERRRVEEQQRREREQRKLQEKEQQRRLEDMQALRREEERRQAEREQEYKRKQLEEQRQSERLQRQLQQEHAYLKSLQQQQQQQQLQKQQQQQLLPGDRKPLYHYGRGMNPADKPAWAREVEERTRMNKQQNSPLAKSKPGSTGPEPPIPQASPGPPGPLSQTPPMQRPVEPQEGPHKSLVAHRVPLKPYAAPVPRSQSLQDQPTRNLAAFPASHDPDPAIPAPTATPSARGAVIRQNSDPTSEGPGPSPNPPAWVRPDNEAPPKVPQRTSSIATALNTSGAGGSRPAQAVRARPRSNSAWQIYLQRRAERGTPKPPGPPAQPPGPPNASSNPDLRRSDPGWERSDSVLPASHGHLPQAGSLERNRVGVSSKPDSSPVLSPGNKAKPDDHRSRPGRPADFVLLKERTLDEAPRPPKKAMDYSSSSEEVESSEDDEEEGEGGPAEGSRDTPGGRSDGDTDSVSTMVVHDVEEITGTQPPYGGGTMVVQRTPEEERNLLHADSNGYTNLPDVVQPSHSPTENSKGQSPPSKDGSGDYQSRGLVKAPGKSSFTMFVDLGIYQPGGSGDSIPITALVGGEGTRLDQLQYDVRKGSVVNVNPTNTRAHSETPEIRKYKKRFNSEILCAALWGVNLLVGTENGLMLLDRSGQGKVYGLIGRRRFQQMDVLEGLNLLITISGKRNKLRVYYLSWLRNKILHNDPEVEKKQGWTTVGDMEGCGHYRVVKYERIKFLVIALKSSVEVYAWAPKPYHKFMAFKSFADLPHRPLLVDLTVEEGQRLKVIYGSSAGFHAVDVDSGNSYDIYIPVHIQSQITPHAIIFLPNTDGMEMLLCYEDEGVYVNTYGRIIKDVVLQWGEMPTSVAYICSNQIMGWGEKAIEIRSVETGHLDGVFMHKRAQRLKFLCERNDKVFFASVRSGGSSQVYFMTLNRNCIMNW
Description: 375-member kinase panel. Type of test: biochemical. The note with it: Run 1, Run 2; for % enzyme activity: 1 μM; for remaining activity at 1 µM: read-out: % enzyme activity, 1 μM.

The target in a further test is JNK3 (Homo sapiens, UniProt P53779). The test can be described thus: biochemical. Conditions: read-out: % enzyme activity, 1 μM; Run 1, Run 2.
Chain of JNK3 (P53779 whole entry): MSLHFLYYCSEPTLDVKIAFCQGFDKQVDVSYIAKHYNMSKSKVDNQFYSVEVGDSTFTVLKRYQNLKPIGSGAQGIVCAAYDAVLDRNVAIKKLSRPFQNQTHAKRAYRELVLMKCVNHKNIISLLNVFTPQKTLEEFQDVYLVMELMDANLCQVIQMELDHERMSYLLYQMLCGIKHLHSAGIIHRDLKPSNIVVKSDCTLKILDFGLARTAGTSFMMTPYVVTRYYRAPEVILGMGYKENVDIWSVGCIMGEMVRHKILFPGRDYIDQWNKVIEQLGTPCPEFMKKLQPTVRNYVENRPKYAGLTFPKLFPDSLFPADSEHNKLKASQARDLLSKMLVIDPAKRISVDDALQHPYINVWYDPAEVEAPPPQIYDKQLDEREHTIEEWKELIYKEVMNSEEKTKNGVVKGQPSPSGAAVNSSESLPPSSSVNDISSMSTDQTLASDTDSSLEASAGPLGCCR
The target in a further test is T5, PKMYT1 (Homo sapiens, UniProt Q99640).
T5 sequence (Q99640 1-499): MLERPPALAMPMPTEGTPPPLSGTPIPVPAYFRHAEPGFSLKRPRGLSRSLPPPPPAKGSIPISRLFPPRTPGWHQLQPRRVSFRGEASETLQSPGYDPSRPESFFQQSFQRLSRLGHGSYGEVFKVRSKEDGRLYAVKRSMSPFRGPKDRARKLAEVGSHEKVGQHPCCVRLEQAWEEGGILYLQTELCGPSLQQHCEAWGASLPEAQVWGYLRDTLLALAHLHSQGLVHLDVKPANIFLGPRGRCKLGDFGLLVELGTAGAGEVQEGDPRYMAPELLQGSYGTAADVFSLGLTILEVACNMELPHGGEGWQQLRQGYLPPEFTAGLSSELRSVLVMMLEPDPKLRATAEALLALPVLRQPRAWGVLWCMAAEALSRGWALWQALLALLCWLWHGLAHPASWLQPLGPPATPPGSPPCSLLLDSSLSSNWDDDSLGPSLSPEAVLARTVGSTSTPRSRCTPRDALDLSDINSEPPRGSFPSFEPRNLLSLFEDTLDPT
Conditions: 1 μM; Run 1, Run 2.

Chain of JAK2 (O60674 whole entry): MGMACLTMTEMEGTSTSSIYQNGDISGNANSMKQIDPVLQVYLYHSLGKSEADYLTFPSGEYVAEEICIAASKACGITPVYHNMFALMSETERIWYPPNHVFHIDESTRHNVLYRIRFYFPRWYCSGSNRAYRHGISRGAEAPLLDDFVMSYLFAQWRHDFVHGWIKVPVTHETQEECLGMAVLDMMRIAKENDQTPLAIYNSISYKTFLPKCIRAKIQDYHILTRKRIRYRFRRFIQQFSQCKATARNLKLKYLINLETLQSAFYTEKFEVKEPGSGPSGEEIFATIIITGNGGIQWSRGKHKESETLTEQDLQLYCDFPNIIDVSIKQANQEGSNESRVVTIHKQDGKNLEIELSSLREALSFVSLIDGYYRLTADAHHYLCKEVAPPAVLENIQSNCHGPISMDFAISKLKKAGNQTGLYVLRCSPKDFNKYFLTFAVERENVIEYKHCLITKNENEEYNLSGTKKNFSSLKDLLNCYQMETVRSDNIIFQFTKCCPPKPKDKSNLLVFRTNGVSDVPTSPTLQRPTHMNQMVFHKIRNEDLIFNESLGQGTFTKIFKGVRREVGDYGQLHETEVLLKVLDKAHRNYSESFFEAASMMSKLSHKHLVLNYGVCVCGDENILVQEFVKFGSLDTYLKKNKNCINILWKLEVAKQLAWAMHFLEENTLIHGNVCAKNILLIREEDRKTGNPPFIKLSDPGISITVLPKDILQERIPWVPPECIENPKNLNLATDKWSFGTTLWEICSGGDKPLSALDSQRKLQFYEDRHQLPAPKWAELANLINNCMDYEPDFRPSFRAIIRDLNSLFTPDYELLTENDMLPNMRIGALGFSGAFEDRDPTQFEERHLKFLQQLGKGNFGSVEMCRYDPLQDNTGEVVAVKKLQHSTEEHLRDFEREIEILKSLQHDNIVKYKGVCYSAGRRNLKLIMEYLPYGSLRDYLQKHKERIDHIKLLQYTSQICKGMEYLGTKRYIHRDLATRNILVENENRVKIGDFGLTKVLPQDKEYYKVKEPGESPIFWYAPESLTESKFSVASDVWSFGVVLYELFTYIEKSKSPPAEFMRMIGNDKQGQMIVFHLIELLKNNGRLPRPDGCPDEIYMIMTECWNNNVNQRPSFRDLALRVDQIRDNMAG
Chain of JAK1 (P23458 whole entry): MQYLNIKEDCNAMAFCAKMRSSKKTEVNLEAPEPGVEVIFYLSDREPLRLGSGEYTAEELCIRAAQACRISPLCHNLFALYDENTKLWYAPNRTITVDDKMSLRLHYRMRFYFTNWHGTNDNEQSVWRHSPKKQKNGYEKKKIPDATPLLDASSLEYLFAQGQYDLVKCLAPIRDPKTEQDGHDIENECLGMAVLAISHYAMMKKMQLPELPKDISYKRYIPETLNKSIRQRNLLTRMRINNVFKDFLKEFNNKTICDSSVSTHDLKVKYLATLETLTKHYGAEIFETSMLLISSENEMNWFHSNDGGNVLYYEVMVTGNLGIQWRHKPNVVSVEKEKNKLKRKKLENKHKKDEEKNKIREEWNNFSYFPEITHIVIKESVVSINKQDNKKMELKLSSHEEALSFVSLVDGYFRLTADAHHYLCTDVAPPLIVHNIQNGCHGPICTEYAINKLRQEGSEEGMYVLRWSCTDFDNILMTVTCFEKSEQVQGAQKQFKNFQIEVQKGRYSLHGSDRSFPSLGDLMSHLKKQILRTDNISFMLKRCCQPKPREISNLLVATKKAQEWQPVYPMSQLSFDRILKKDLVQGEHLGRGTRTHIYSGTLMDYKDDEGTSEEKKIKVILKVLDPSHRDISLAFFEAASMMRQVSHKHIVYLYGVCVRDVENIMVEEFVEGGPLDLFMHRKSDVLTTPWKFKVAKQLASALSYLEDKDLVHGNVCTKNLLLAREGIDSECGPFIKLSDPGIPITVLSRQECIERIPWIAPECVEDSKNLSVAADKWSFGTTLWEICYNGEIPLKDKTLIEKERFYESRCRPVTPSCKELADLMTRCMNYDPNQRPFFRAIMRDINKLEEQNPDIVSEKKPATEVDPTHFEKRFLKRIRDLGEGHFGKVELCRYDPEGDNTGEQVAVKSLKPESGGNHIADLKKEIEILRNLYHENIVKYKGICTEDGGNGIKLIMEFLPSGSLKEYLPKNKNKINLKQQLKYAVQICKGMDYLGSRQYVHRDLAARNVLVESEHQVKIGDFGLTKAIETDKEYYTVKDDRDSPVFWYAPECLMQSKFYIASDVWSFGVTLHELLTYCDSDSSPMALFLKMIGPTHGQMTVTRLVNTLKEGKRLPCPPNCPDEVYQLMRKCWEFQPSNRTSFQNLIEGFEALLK

With `COc1cc(-c2cncc(-c3ccc(N4CCN(C)CC4)cc3)c2C)cc(F)c1C(N)=O` [Compound 26a, 2-Fluoro-6-methoxy-4-(4-methyl-5-(4-(4-methylpiperazin-1-yl)phenyl)pyridin-3-yl)benzamide], the remaining activity at 1 µM on SRPK2 came to 97.8%; on JAK2, 93.5%; on FES/FPS, 99.9%; at ALK5/TGFBR1, 82.5%; on MAPKAPK5/PRAK, 93.2%; on NEK4, 98.5%. Also, the remaining activity at 1 µM on MINK/MINK1 came to 24.1%; at JNK3 it was 96.4%. Further, the “% enzyme activity” value at PLK4/SAK is 93.32%; on JAK1, 99.53%; on ALK5/TGFBR1, 82.28%; at MINK/MINK1, 22.65%; on PKMYT1 it was 100.09%.
For `COc1cc(-c2cncc(-c3ccc(N4C[C@@H](C)N(C)[C@@H](C)C4)cc3)c2C)cc(F)c1C(N)=O` [Compound 26c, 2-Fluoro-6-methoxy-4-(4-methyl-5-(4-((3R,5S)-3,4,5-trimethylpiperazin-1-yl)phenyl)pyridin-3-yl)benzamide], the remaining activity at 1 µM worked out at 121% at SRPK2; 88.6% at JAK2; 98.7% on FES/FPS; 97.2% on ALK5/TGFBR1; 94.7% at MAPKAPK5/PRAK; 98% at NEK4. Moreover, the remaining activity at 1 µM on MINK/MINK1 turned out to be 30.2%; on JNK3 it was 104%. The “% enzyme activity” value on PLK4/SAK is listed as 98.79%; at JAK1 it was 99.07%; at ALK5/TGFBR1 it was 96.60%; at MINK/MINK1, 29.65%; on PKMYT1, 92.38%.
